Test results: publication PMC7162859 (Scientific Reports, 2020)

How the values were obtained:
[1] = design: method as in PMID 23334925; settings: following ip dosing; cited from earlier work
[2] = system: P-gp; settings: read-out: EC50 (P-gp inhibition); cited from earlier work
[3] = system: Bcrp; design: method as in PMID 15930306; settings: read-out: EC50 (Bcrp inhibition); cited from earlier work
[4] = system: orthotopic GBM1A tumors; assay: Pharmacodynamics: monopolar spindle formation in orthotopic GBM1A tumors; type: in vivo, NSG mice; settings: single ip dose 10 mg/kg each drug; 8 hours
Protocol: Female NSG mice were intracerebrally injected with 500,000 GBM1A cells at coordinates X = 1.5 mm, Y = 1.5 mm and Z = 2.5 mm relative to the bregma, and tumor growth was monitored by bioluminescence imaging. After 4 weeks (tumor size of about 2 × 10^9 photons/sec), animals were randomized to receive single ip dose of microemulsion vehicle, 10 mg/kg elacridar, 10 mg/kg ispinesib, or a combination of 10 mg/kg ispinesib and 10 mg/kg elacridar (n = 8–10). At 8 hours following treatment, mice were perfused and whole brains were isolated. The samples were processed for immunofluorescence by staining for tubulin with an alpha-tubulin antibody (Cell signaling, Cat#2125) and counter staining with DAPI for visualizing nuclei. Images were scanned and counted for cells with monopolar spindles.

[5] = system: orthotopic GBM1A tumors; type: in vivo; settings: 10 mg/kg ip each drug once every 4 days for 28 days
Protocol: Female NSG mice were intracranially implanted with 500,000 luciferase expressing GBM1A cells (transduced with lentiviral particles expressing GFP-Luciferase). After 7 days, animals were randomized into four groups and ip administered with microemulsion vehicle, 10 mg/kg elacridar, 10 mg/kg ispinesib, or a combination of 10 mg/kg ispinesib and 10 mg/kg elacridar, once every 4 days for 28 days (n = 10). The dosing schedule of once every 4 days was based on our previously publication with ispinesib. Tumor growth was monitored by bioluminescence imaging and animals were followed for survival.
The progression of tumor growth was monitored by bioluminescence imaging (BLI) using an IVIS system. Mice that underwent stereotactic injection with GFP-luciferase expressing GBM1A cells were imaged twice a week. Ten minutes prior to imaging, mice were intraperitoneally injected with d-luciferin at 75 mg/kg body weight (3 mL/kg injection volume). Animals were immobilized using 1.5% − 3.0% isoflurane provided by nose cones within the imager and were kept warm using a heated stage set at 37 °C during the imaging procedure. Following imaging for about 5 minutes, animals were removed from the IVIS chamber and monitored until they fully recovered from anesthesia.

**Q.** For COc1cc2c(cc1OC)CN(CCc1ccc(NC(=O)c3cccc4c(=O)c5cccc(OC)c5[nH]c34)cc1)CC2 [Elacridar, N-[4-[2-(6,7-dimethoxy-3,4-dihydro-1H-isoquinolin-2-yl)ethyl]phenyl]-5-methoxy-9-oxo-10H-acridine-4-carboxamide], which half-life [1] is on record?
**A.** Its half-life is 3.2 h.

**Q.** What about the EC50 [3] of the same compound?
**A.** The EC50 was roughly 300 nM.

**Q.** And the “monopolar spindles in tumor core (tubulin/DNA staining)” value [4]?
**A.** The value was “normal distribution of DNA”.

**Q.** And the “tumor doubling time (bioluminescence, single exponential fit)” value ([5]; days 7–37)?
**A.** The value was 6.2 days.

**Q.** What about the median survival ([5]; vehicle 61 days) of the same compound?
**A.** The median survival was 62 days.
